Reference: patent US7915402B2, “Antioxidant inflammation modulators: oleanolic acid derivatives with saturation in the C-ring” (Reata Pharmaceuticals, Inc., priority 2008, dated 2011)
Where “and” joins values, the source holds several entries; their conditions need not be identical. Identical values can stand only once. Like-named read-outs stand apart in the source and are kept apart here.

Assays:
[1] = CNS and lung tissue concentrations after oral dosing in monkeys; assay type: in vivo; conditions: cynomolgus monkey; for excess of mean CNS concentration compared to the dose necessary to suppress inflammation in vitro: vs NO IC50 about 45 nM; for Mean 404-02 CNS Tissue Content (ng/g) ± SEM: day 15, about 3 h after dosing; for Mean 404-02 CNS Tissue Concentration (nM) ± SEM: conversion assumes tissue density 1 g/mL
Method: CNS and lung concentrations following oral dosing: 2 male and 2 female cynomolgus monkeys were administered 404-02 at 0.5, 5, 25 or 75 mg/kg/day doses via oral gavage, in addition to a control (non-treatment) group with 2 animals per sex. Animals were sacrificed approximately 3 hours after dosing on day 15 following harvest of brain and lung tissues. Each sample collected was rinsed in 1× isotonic phosphate buffered saline and blotted dry before weighing. Harvested tissue slices were transferred to cryovials and stored at −80° C. until processing and LC-MS/MS analysis. Standard curves were derived for 404-02 in homogenates of these tissues and were used to quantify the day 15 samples.

[2] = tested on: γ-glutamylcysteine synthetase (γ-GCS); assay: Nrf2 target gene induction, γ-GCS mRNA (qPCR); assay type: cell-based, human; conditions: MDA-MB-435 cells
Method: (§1) FIG. 21. Induction of HO-1, TrxR1 and γ-GCS. MDA-MB-435 human melanoma cells were treated with vehicle (DMSO) or the indicated compounds and concentrations for 16 hours. HO-1, thioredoxin reductase-1 (TrxR1), and γ-glutamylcysteine synthetase (γ-GCS) mRNA levels were quantified using qPCR and were normalized relative to a DMSO-treated sample run in parallel. Values are averages of duplicate wells.
as §1, with “23.” for “21.”, “of” for “of HO-1, TrxR1 and”, “hours.” for “hours. HO-1, thioredoxin reductase-1 (TrxR1), and”
as §1, with “Nrf2 target gene induction.” for “FIG. 21. Induction of HO-1, TrxR1 and γ-GCS.”, “(TrxR1),” for “(TrxR1), and”, “(γ-GCS), and ferritin heavy chain” for “(γ-GCS)”, “wells. Primer sequences are as follows.” for “wells.”

[3] = tested on: HO-1; assay: Nrf2 target gene induction, HO-1 mRNA (qPCR); assay type: cell-based, human; conditions: MDA-MB-435 cells, 250 nM; fold induction above DMSO control
Method: as §1, with “FIGS. 17-20.” for “FIG. 21.”, “HO-1.” for “HO-1, TrxR1 and γ-GCS.”, “HO-1” for “HO-1, thioredoxin reductase-1 (TrxR1), and γ-glutamylcysteine synthetase (γ-GCS)”
as §1
as §1, with “Nrf2 target gene induction.” for “FIG. 21. Induction of HO-1, TrxR1 and γ-GCS.”, “(TrxR1),” for “(TrxR1), and”, “(γ-GCS), and ferritin heavy chain” for “(γ-GCS)”, “wells. Primer sequences are as follows.” for “wells.”

[4] = tested on: mice; conditions: sesame oil, N=4
[5] = Plasma pharmacokinetics after oral dosing in monkeys; assay type: in vivo; conditions: cynomolgus monkey; for Mean Maximum 404-02 Plasma Concentration (nM) ± SEM / Mean Maximum 404-02 Plasma Concentration (ng/mL) ± SEM: oral gavage
Method: Doses were prepared in sesame oil and individualized to body weight on the day of dosing. Blood was drawn prior to dosing and at 1, 2, 4, 8 and 24 hours post -dose on days 1 and 12. Blood samples were collected from the femoral artery/vein for determination of 404-02 plasma concentrations. Blood was placed in tubes containing K3EDTA and stored on ice until centrifugation at room temperature. The isolated plasma was transferred to cryovials and stored at −80° C. until sample processing and LC -MS/MS analysis. Extracted plasma standard curves were prepared from fresh stock solutions and analyzed prior to study samples.
Population mean pharmacokinetic parameter estimates were obtained by performing non-compartmental analysis of the 404-02 plasma concentration-versus-time data using WinNonlin™ software version 5.2.
Pharmacokinetic parameters obtained using non-compartmental analysis, WinNonlin™ version 5.2.
Pharmacokinetic parameters were obtained using non-compartmental analysis using WinNonlin™ version 5.2 software.

[6] = Plasma pharmacokinetics after oral dosing in rats; assay type: in vivo, Sprague Dawley rats; conditions: SD rats, oral gavage
Method: Compound 404-02 reaches high concentrations in the lung and CNS of rats following oral dosing: To assess basic pharmacokinetic parameters following oral dosing, 9 male and 9 female Sprague Dawley (SD) rats were administered 404-02 at 1, 10 or 50 mg/kg doses via oral gavage. Doses were prepared in sesame oil and individualized to body weight on the day of dosing. Blood was drawn at 0, 1, 2, 4, 8 and 24 hours post-dose on days 1 and 15. Blood was collected from the orbital sinus after carbon dioxide/oxygen inhalation for determination of 404-02 plasma concentrations. Plasma was transferred to cryovials and stored at −80° C. until processing and LC-MS/MS analysis. A standard curve was derived for 404-02 in rat plasma, and quantification of experimental results was based on this standard curve.
Pharmacokinetic parameters were obtained using non-compartmental analysis, WinNonlin™ version 5.2.

[7] = oral gavage, 0.5 mg/kg/day, day 15
[8] = oral gavage, 5 mg/kg/day, day 15
[9] = oral gavage, 25 mg/kg/day, day 15
[10] = oral gavage, 75 mg/kg/day, day 15
[11] = 1 mg/kg/day, day 1, n=9/sex/dose level
[12] = 1 mg/kg/day, day 15, n=9/sex/dose level
[13] = 10 mg/kg/day, day 1, n=9/sex/dose level
[14] = 10 mg/kg/day, day 15, n=9/sex/dose level
[15] = 50 mg/kg/day, day 1, n=9/sex/dose level
[16] = 50 mg/kg/day, day 15, n=9/sex/dose level

CC1(C)CC[C@]2(C(=O)NCC(F)(F)F)CC[C@]3(C)[C@H](C(=O)C[C@@H]4[C@@]5(C)C=C(C#N)C(=O)C(C)(C)[C@@H]5CC[C@]43C)[C@@H]2C1 [Compound 63102, (4aS,6aR,6bR,8aR,12aR,12bR,14aR,14bS)-11-cyano-2,2,6a,6b,9,9,12a-heptamethyl-10,14-dioxo-N-(2,2,2-trifluoroethyl)-1,2,3,4,4a,5,6,6a,6b,7,8,8a,9,10,12a,12b,13,14,14a,14b-icosahydropicene-4a-carboxamide]
concentration at 3 h ([1]; both sexes, lung, oral gavage, 25 mg/kg/day, day 15, read-out: Mean 404-02 Lung Tissue Concentration (nM) ± SEM): 246 ± 87 nM
excess of mean CNS concentration compared to the dose necessary to suppress inflammation in vitro ([1]; 0.5 mg/kg/day): 48 fold
excess of mean CNS concentration compared to the dose necessary to suppress inflammation in vitro ([1]; 5 mg/kg/day): 44 fold
excess of mean CNS concentration compared to the dose necessary to suppress inflammation in vitro ([1]; 25 mg/kg/day): 37 fold
increase of mean lung tissue exposure compared to the dose necessary to suppress inflammation in vitro ([1]; 75 mg/kg/day): 133 fold
excess of mean CNS concentration compared to the dose necessary to suppress inflammation in vitro ([1]; 75 mg/kg/day): 75 fold
Mean 404-02 Lung Tissue Concentration (nM) ± SEM [1, 7]: 1227 ± 508 nM
Mean 404-02 Lung Tissue Content (ng/g) ± SEM [1, 7]: 705 ± 292 ng/g
Mean 404-02 CNS Tissue Content (ng/g) ± SEM ([1]; oral gavage, 0.5 mg/kg/day): 1198 ± 712 ng/g
Mean 404-02 Lung Tissue Concentration (nM) ± SEM [1, 8]: 55 ± 27 nM
Mean 404-02 Lung Tissue Content (ng/g) ± SEM [1, 8]: 24 ± 15 ng/g
Mean 404-02 CNS Tissue Content (ng/g) ± SEM ([1]; oral gavage, 5 mg/kg/day): 1090 ± 564 ng/g
Mean 404-02 CNS Tissue Concentration (nM) ± SEM [1, 8]: 1900 ± 982 nM
Mean 404-02 Lung Tissue Content (ng/g) ± SEM [1, 9]: 141 ± 50 ng/g
Mean 404-02 CNS Tissue Content (ng/g) ± SEM ([1]; oral gavage, 25 mg/kg/day): 930 ± 352 ng/g
Mean 404-02 CNS Tissue Concentration (nM) ± SEM [1, 9]: 1618 ± 612 nM
Mean 404-02 Lung Tissue Concentration (nM) ± SEM [1, 10]: 5929 ± 1435 nM
Mean 404-02 Lung Tissue Content (ng/g) ± SEM [1, 10]: 3405 ± 824 ng/g
Mean 404-02 CNS Tissue Content (ng/g) ± SEM ([1]; oral gavage, 75 mg/kg/day): 1898 ± 496 ng/g
Mean 404-02 CNS Tissue Concentration (nM) ± SEM [1, 10]: 3305 ± 864 nM
γ-GCS induction ([2]; 250 nM, fold induction above DMSO control): 4.5 fold
γ-GCS mRNA induction: concentration needed compared with unsaturated counterpart (402, 404) ([2]; 16 hours): higher concentrations
HO-1 induction [3]: 3 fold
Number of Deaths ([4]; oral gavage QDx14, 10 mg/kg): 0
Number of Deaths ([4]; oral gavage QDx14, 50 mg/kg): 0
Number of Deaths ([4]; oral gavage QDx14, 100 mg/kg): 0
Number of Deaths ([4]; oral gavage QDx14, 250 mg/kg): 0
Mean Maximum 404-02 Plasma Concentration (nM) ± SEM ([5]; 0.5 mg/kg/d, day 1, n=4): 3.4 ± 0.61 nM
Mean Maximum 404-02 Plasma Concentration (ng/mL) ± SEM ([5]; 0.5 mg/kg/d, day 1, n=4): 1.95 ± 0.35 ng/mL
Mean Maximum 404-02 Plasma Concentration (ng/mL) ± SEM ([5]; 0.5 mg/kg/d, day 12, n=4): 2.65 ± 0.6 ng/mL
Mean Maximum 404-02 Plasma Concentration (nM) ± SEM ([5]; 0.5 mg/kg/d, day 12, n=4, listed as 404-02, 0.5 mg/kg/day): 4.6 nM and 4.6 ± 1.0 nM
Mean Maximum 404-02 Plasma Concentration (nM) ± SEM ([5]; 5 mg/kg/d, day 1, n=4): 17.6 ± 6.6 nM
Mean Maximum 404-02 Plasma Concentration (ng/mL) ± SEM ([5]; 5 mg/kg/d, day 1, n=4): 10.1 ± 3.8 ng/mL
Mean Maximum 404-02 Plasma Concentration (ng/mL) ± SEM ([5]; 5 mg/kg/d, day 12, n=4): 7.3 ± 1.7 ng/mL
Mean Maximum 404-02 Plasma Concentration (nM) ± SEM ([5]; 5 mg/kg/d, day 12, n=4, listed as 404-02, 5 mg/kg/day): 12.7 nM and 12.7 ± 2.9 nM
Mean Maximum 404-02 Plasma Concentration (nM) ± SEM ([5]; 25 mg/kg/d, day 1, n=4): 29.3 ± 2.3 nM
Mean Maximum 404-02 Plasma Concentration (ng/mL) ± SEM ([5]; 25 mg/kg/d, day 1, n=4): 16.8 ± 1.3 ng/mL
Mean Maximum 404-02 Plasma Concentration (ng/mL) ± SEM ([5]; 25 mg/kg/d, day 12, n=4): 10.0 ± 3.7 ng/mL
Mean Maximum 404-02 Plasma Concentration (nM) ± SEM ([5]; 25 mg/kg/d, day 12, n=4, listed as 404-02, 25 mg/kg/day): 17.5 nM and 17.5 ± 6.4 nM
Mean Maximum 404-02 Plasma Concentration (nM) ± SEM ([5]; 75 mg/kg/d, day 1, n=4): 33.8 ± 4.7 nM
Mean Maximum 404-02 Plasma Concentration (ng/mL) ± SEM ([5]; 75 mg/kg/d, day 1, n=4): 19.4 ± 2.7 ng/mL
Mean Maximum 404-02 Plasma Concentration (nM) ± SEM ([5]; 75 mg/kg/d, day 12, n=4, listed as 404-02, 75 mg/kg/day): 48.6 nM
increase in AUC0-24hr after 12 days of dosing compared to day 1 ([5]; oral, 75 mg/kg dose level): 1.6 fold
accumulation (AUC day 12 vs day 1) ([5]; oral, other dose levels (0.5, 5, 25 mg/kg/day)): Accumulation was not observed
Mean Maximum 404-02 Plasma Concentration (nM) ± SEM [6, 11]: 5.7 ± 1.1 nM
Mean Maximum 404-02 Plasma Concentration (ng/mL) ± SEM [6, 11]: 3.3 ± 0.65 ng/mL
Mean Maximum 404-02 Plasma Concentration (nM) ± SEM [6, 12]: 11.0 ± 1.6 nM
Mean Maximum 404-02 Plasma Concentration (ng/mL) ± SEM [6, 12]: 6.3 ± 0.9 ng/mL
Mean Maximum 404-02 Plasma Concentration (nM) ± SEM [6, 13]: 116 ± 28.7 nM
Mean Maximum 404-02 Plasma Concentration (ng/mL) ± SEM [6, 13]: 66 ± 16.5 ng/mL
Mean Maximum 404-02 Plasma Concentration (nM) ± SEM [6, 14]: 210 ± 42.3 nM
Mean Maximum 404-02 Plasma Concentration (ng/mL) ± SEM [6, 14]: 144 ± 24.3 ng/mL
Mean Maximum 404-02 Plasma Concentration (nM) ± SEM [6, 15]: 1241 ± 171 nM
Mean Maximum 404-02 Plasma Concentration (ng/mL) ± SEM [6, 15]: 713 ± 98.2 ng/mL
Mean Maximum 404-02 Plasma Concentration (nM) ± SEM [6, 16]: 1966 ± 199 nM
Mean Maximum 404-02 Plasma Concentration (ng/mL) ± SEM [6, 16]: 1129 ± 114 ng/mL
